Read-outs that look alike come from different tables or passages of the source. One block for each compound: values may come before it. *1 amine or outer side, *2 acyl side, *3 side chain or, on linkers, in order; H or OH if unused. Where a SMILES comes first, the peptide text is derived from it. Bridges are numbered along the chain shown (N, C = ends). Roman numbers before positions name the chains, in order. [ ]: non-standard residue; d: D form. Actinocin(9to1) = Cc1c2oc3c(C)ccc(C(=O)[*:1])c3nc-2c(C(=O)[*:2])c(N)c1=O; NMeV = CN[C@H](C(=O)O)C(C)C; Sar = CNCC(=O)O
How the values were obtained:
[1] = test system: TOV-21-G cells; assay: qHTS ATPlite cell viability, TOV-21-G cells; format: cell-based, human; conditions: for IC50: Homo sapiens, TOV21G, 48 h; for Avg SI: TOV-21-G selective compounds, vs HEK 293T, >100 = inactive in HEK293T
[2] = test system: 11 gynecologic cancer cell lines; assay: qHTS ATPlite cell viability, gynecologic cancer cell lines (ovarian, cervical, placental); format: cell-based, human; conditions: for Cell Lines Active: number of the 11 cancer cell lines in which the compound is active (<1 μM potency, >70% efficacy); for Average SI: selectivity index vs HEK 293T
Procedure: (§1) The ATPlite luminescence assay system assay kit was used to determine cell viability. The reagent was reconstituted and prepared as described by the manufacturer. To measure the cell death caused by the compounds, cells were cultured in 4 μl of media for 16 hours at 37°C with 5% CO2 in assay plates, followed by the addition of DMSO or 16 SOC chemotherapeutic compounds dissolved in DMSO. SOC compounds were dosed at 11 concentrations (1:3 dilution) in quadruplicate from 57.5 μM to 0.977 nM using the automated Wako 1536 Pin Tool workstation and incubated at 37°C with 5% CO2 for 24, 48, or 72 hours. Four microliters of ATPlite, the ATP monitoring reagent, was then added to each well of the assay plates using the Multidrop Combi reagent dispenser followed by incubation for 15 minutes at room temperature. The resulting luminescence was measured using the ViewLux plate reader. Data were normalized for each drug using the largest luminescence value as 100% full cell viability (0% cell killing) and to the smallest luminescence value 0% viability (100% cell killing).
(§2) A qHTS [79], in which each compound was assayed in five concentrations (0.092, 0.46, 2.3, 11.5, and 57.5 μM), was performed for the primary compound screen using the NPC [80] and NPACT drug libraries at NCATS. The OBGYN cancer and HEK 293T control cells were seeded into 1536-well assay plates at 1000 cells per 4 μl/well and incubated at 37°C in 5% CO2 for 48 hours. The ATPlite assay to determine the IC50 values for each compound was conducted as described above. Plates were processed on the fully integrated Kalypsys robotic system.

[3] = test system: placental cancer cell lines (JAR, JEG-3); assay: qHTS ATPlite cell viability, placental cancer cell lines; format: cell-based, human; conditions: for IC50: Homo sapiens, JEG-3; for Average SI: vs HEK 293T, >100 = inactive in HEK293T
Procedure: as §1
The ATPlite assay to determine the IC50 values for each compound was conducted as described above. Plates were processed on the fully integrated Kalypsys robotic system.

[4] = test system: ovarian cancer cell lines; assay: qHTS ATPlite cell viability, ovarian cancer cell lines; format: cell-based, human; conditions: for Average SI: vs HEK 293T, >100 = inactive in HEK293T
[5] = test system: ovarian and placental cancer cell lines; assay: qHTS ATPlite cell viability, ovarian + placental cancer cell lines; format: cell-based, human; conditions: for IC50: Homo sapiens, 48 h; for Average SI: vs HEK 293T, >100 = inactive in HEK293T
Procedure: as §1, §2

[6] = test system: HeLa cells; assay: qHTS ATPlite cell viability, HeLa cells; format: cell-based, human; conditions: for Avg SI: HeLa selective compounds, vs HEK 293T; for IC50: HeLa, confirmation screen, 48 h
[7] = test system: HEK 293T cells; assay: cells; conditions: 48 h; for IC50: read-out: IC50 (HEK 293T toxicity)
Procedure: as §1, §2

[8] = test system: HEK 293T cells; parameters: method as in PMID 31498718; conditions: CellTiterGlo, cited from earlier work; for IC50: independent screen
[9] = test system: PA-1 cells; assay: ATP content (ATPlite) cell viability assay in PA-1 cells; format: cell-based, human
[10] = test system: CAOV-3 cells; assay: ATP content (ATPlite) cell viability assay in CAOV-3 cells; format: cell-based, human; conditions: assay optimization
Procedure: as §1

[11] = test system: ovarian and cervical cancer cell lines; assay: qHTS ATPlite cell viability, ovarian + cervical cancer cell lines; format: cell-based, human; conditions: Ovarian + cervical cancer cell line killer
Procedure: A qHTS [79], in which each compound was assayed in five concentrations (0.092, 0.46, 2.3, 11.5, and 57.5 μM), was performed for the primary compound screen using the NPC [80] and NPACT drug libraries at NCATS. […]

[12] = test system: cervical cancer cell lines (HeLa, Ca Ski, C-33 A); assay: qHTS ATPlite cell viability, cervical cancer cell lines; format: cell-based; conditions: Homo sapiens
[13] = cited from earlier work
[14] = Homo sapiens, average IC90 over the cell lines in which the compound is active, read-out: IC90
[15] = Placental cancer cell line killer, mean of cell lines fulfilling criteria, 48 h, read-out: Average IC50
[16] = Placental cancer cell line killer
[17] = Ovarian cell line killer, mean of cell lines fulfilling criteria, 48 h, read-out: Average IC50
[18] = Ovarian + placental cancer cell line killer
[19] = Homo sapiens, Ovarian cell line killer, mean of cell lines fulfilling criteria, 48 h, read-out: Average IC50
[20] = toxic compounds, average over all cancer cell lines, mean ± S.D.
[21] = HEK 293T, this screen (ATPlite)

SMILES: CNC(=O)c1nn(C)c2c1C(C)(C)Cc1cnc(Nc3ccc(N4CCN(C)CC4)cc3)nc1-2 [Milciclib, N,1,4,4-tetramethyl-8-{[4-(4-methylpiperazin-1-yl)phenyl]amino}-4,5-dihydro-1H-py razolo[4,3-h]quinazoline-3-carboxamide]
IC50 ([1]; TOV-21-G, confirmation screen, read-out: Avg IC50): 0.0897 µM
Avg SI [1]: 50.1

IC90 [2, 14]: 0.09 µM
SMILES: CC[C@@H]1C(=O)N(C)c2cnc(Nc3ccc(C(=O)N[C@H]4CC[C@H](N5CCN(CC6CC6)CC5)CC4)cc3OC)nc2N1C(C)C [Volasertib]
Cell Lines Active [2]: 4
IC50 [3, 15]: 0.0709 ± 0.00735 µM
Average SI [3, 16]: 131 ± 13.5

SMILES: CNc1nccc(-c2cccnc2Oc2cc(C(=O)Nc3cccc(C(F)(F)F)c3)ccc2C)n1 [AMG-Tie2-1]
IC50 [4, 17]: 15.9 ± 9.71 µM
Average SI ([4]; Ovarian cell line killer): >100

SMILES: C=CC(=O)Nc1cccc(Oc2nc(Nc3ccc(N4CCN(C)CC4)cc3)ncc2Cl)c1 [WZ3146]
IC50 [4, 17]: 12.3 ± 8.52 µM
Average SI ([4]; Ovarian cell line killer): >100

SMILES: Cc1cnc(Nc2ccc(OCCN3CCCC3)cc2)nc1Nc1cccc(S(=O)(=O)NC(C)(C)C)c1 [Fedratinib]
IC50 ([5]; Ovarian + placental cancer cell line killer, mean of cell lines fulfilling criteria, read-out: Average IC50): 13.1 ± 7.51 µM
Average SI [5, 18]: >100
Average SI ([5]; Ovarian + placental cancer cell line killer, listed as fedratinib): > 100
selective killing of ovarian cancer lines ([4]; SI of 5 or greater, six ovarian lines): selectivity killed all six ovarian cancer lines

IC50 [6]: 0.638 µM
SMILES: COc1cc(N2CCC(N)CC2)ccc1Nc1ncc(Cl)c(-c2c[nH]c3ccccc23)n1 [AZD3463]
Avg SI [6]: 30.3

SMILES: Cc1cc(Nc2nc(N[C@@H](C)c3ccc(F)cc3)c(C#N)cc2F)[nH]n1 [AZ-960]
IC50 [4, 19]: 12 ± 7.75 µM
Average SI ([4]; Ovarian cell line killer): >100

IC50 ([6]; Homo sapiens): 0.24 µM
SMILES: C[C@@H](Oc1ccc2[nH]nc(/C=C/c3cnn(CCO)c3)c2c1)c1c(Cl)cncc1Cl [LY2874455]
Avg SI [6]: 38.8

IC50 [6]: 0.835 µM
SMILES: COc1cc(N2CCC(N3CCN(C)CC3)CC2)ccc1Nc1ncc(Cl)c(Nc2ccccc2S(=O)(=O)C(C)C)n1 [NVP-TAE684]
IC50 ([2]; toxic compounds, average over all cancer cell lines, 48 h, mean ± S.D., read-out: Average IC50): 15.7 ± 10 µM
Average SI [2, 20]: 4.87 ± 7.61
Efficacy (%) (HEK 293T toxicity) [7, 21]: 91.8%
IC50 [7, 21]: 23.4 µM
Avg SI [6]: 28.0
Efficacy (%) (independent screen, HEK 293T) [8]: 126%
Independent Screen (confirmation of HEK 293T toxicity) [8]: Confirmed toxic
IC50 [8]: 3.65 µM

SMILES: CNC(=O)c1ccccc1Nc1nc(Nc2ccc(N3CCOCC3)cc2OC)ncc1Cl [TAE226]
IC50 [4, 17]: 5.32 ± 1.42 µM
Average SI ([4]; Ovarian cell line killer): 8.76 ± 2.40

SMILES: CC(=O)OC(C)(C)/C=C/C(=O)[C@](C)(O)[C@H]1[C@H](O)C[C@@]2(C)[C@@H]3CC=C4[C@H](C[C@H](O)C(=O)C4(C)C)[C@]3(C)C(=O)C[C@]12C [Curcubitacin B]
IC50 ([9]; 48 hours incubation, assay optimization, read-out: IC50 (PA-1)): 0.0632 µM
IC50 ([9]; 72 hours incubation, assay optimization, read-out: IC50 (PA-1)): 0.0618 µM
IC50 ([10]; 24 hours incubation): 0.0181 µM
IC50 ([10]; 48 hours incubation): ~0.0206 µM
IC50 ([10]; 72 hours incubation): 0.0222 µM

SMILES: CCOc1cc2ncc(C#N)c(Nc3ccc(OCc4ccccn4)c(Cl)c3)c2cc1NC(=O)/C=C/CN(C)C [Neratinib]
IC50 ([1]; read-out: Avg IC50 (μM)): 0.619 µM
Avg SI [1]: >100

SMILES: COc1cc(Nc2ncc(F)c(Nc3ccc4c(n3)N(COP(=O)(O)O)C(=O)C(C)(C)O4)n2)cc(OC)c1OC [Fostamitinib]
IC50 [4, 19]: 6.24 ± 4.06 µM
Average SI ([4]; Ovarian cell line killer): >100
Average SI ([4]; Ovarian cell line killer, listed as fostamatinib): > 100

SMILES: Cc1cc(CN2CCN(c3c(Br)cnc4nc(-c5ccc(N6CCN(C)CC6)cc5)[nH]c34)CC2)no1 [CCT137690]
IC50 ([11]; mean of cell lines fulfilling criteria, 48 h): 20 ± 7.02 µM
Average SI ([11]; vs HEK 293T, >100 = inactive in HEK293T): >100

IC50 ([6]; Homo sapiens): 0.699 µM
SMILES: CCS(=O)(=O)c1cccc(-c2cc(C(=O)NC3CCN(C)CC3)c(C)c3[nH]c4ncc(C)cc4c23)c1 [TAK 901]
Avg SI [6]: 12.6

SMILES: Cc1c2oc3c(C)ccc(C(=O)N[C@@H]4C(=O)N[C@H](C(C)C)C(=O)N5CCC[C@H]5C(=O)N(C)CC(=O)N(C)[C@@H](C(C)C)C(=O)O[C@@H]4C)c3nc-2c(C(=O)N[C@@H]2C(=O)N[C@H](C(C)C)C(=O)N3CCC[C@H]3C(=O)N(C)CC(=O)N(C)[C@@H](C(C)C)C(=O)O[C@@H]2C)c(N)c1=O [Actinomycin D] (I: T[dV]P[Sar][NMeV] / II: T[dV]P[Sar][NMeV]; ester I:1-I:C, II:1-II:C; linker I:N-II:N via Actinocin(9to1))
IC90 ([2]; Homo sapiens, read-out: average IC90): 0.512 µM
IC50 ([5]; read-out: Average IC50 (μM)): 0.78 ± 0.222 µM
Average SI [5, 18]: >100
Average SI ([5]; Ovarian + placental cancer cell line killer, listed as actinomycin D): > 100

SMILES: C[C@@H](Oc1cc(-n2cnc3ccc(CN4CCN(C)CC4)cc32)sc1C(N)=O)c1ccccc1C(F)(F)F [GSK461364]
IC50 [3, 15]: 3.52 ± 0.133 µM
Average SI [3, 16]: 8.81 ± 0.333

IC90 [2, 14]: 0.719 µM
IC50 ([4]; Homo sapiens, read-out: IC50 for the ovarian lines): 0.343 µM
IC50 ([3]; read-out: IC50 for the placental lines): 0.516 µM
IC50 [12]: 0.224 µM
SMILES: Cc1[nH]c2ccccc2c1CCNCc1ccc(/C=C/C(=O)NO)cc1 [Panobinostat]
IC50 ([2]; Homo sapiens, toxic compounds, average over all cancer cell lines, 48 h, mean ± S.D., read-out: Average IC50): 0.355 ± 0.268 µM
Cell Lines Active [2]: 11
Average SI [2, 20]: 0.92 ± 0.57
Efficacy (%) (HEK 293T toxicity) [7, 21]: 82.6%
IC50 ([7]; Homo sapiens, HEK-293T): 0.21 µM
toxicity to HEK 293T cells ([7]; human): equally toxic to HEK 293T cells
Efficacy (%) (independent screen, HEK 293T) [8]: 85.5%
Independent Screen (confirmation of HEK 293T toxicity) [8]: Confirmed toxic
IC50 [8]: 0.162 µM
Cmax ([13]; oral administration, read-out: Cmax human plasma concentration, range): 38 to 119 nM
Cmax ([13]; oral administration, read-out: median Cmax human plasma concentration): 61 nM

IC90 [2, 14]: 0.218 µM
IC50 ([2]; Homo sapiens, average over the cell lines in which the compound was active, read-out: average IC50): 0.15 µM
SMILES: CC(C)C[C@H](NC(=O)[C@H](Cc1ccccc1)NC(=O)c1cnccn1)B(O)O [Bortezomib]
Cell Lines Active [2]: 8
Cmax ([13]; intravenous dose, read-out: Cmax): 580 nM

SMILES: COc1cccc2c1C(=O)c1c(O)c3c(c(O)c1C2=O)C[C@@](O)(C(=O)CO)C[C@@H]3O[C@H]1C[C@H](N)[C@H](O)[C@H](C)O1 [Adriamycin]
IC50 ([9]; Homo sapiens, PA-1, 24 hours incubation, assay optimization, read-out: IC50 (PA-1)): 0.109 µM
IC50 ([9]; Homo sapiens, PA-1, 48 hours incubation, assay optimization, read-out: IC50 (PA-1)): 0.0118 µM
IC50 ([9]; Homo sapiens, PA-1, 72 hours incubation, assay optimization, read-out: IC50 (PA-1)): 0.00359 µM
IC50 ([9]; Homo sapiens, PA-1, confirmation screen, 48 h, read-out: Avg IC50): 0.576 µM
Avg SI ([9]; PA-1 selective compounds, vs HEK 293T, >100 = inactive in HEK293T): 7.02
IC50 ([10]; Homo sapiens, Caov-3, 24 hours incubation): 15.9 µM
IC50 ([10]; Homo sapiens, Caov-3, 48 hours incubation): 0.0982 µM
IC50 ([10]; Homo sapiens, Caov-3, 72 hours incubation): 0.0737 µM
